What follows are molecules tested against T1, histamine H4 receptor (Homo sapiens, UniProt Q9H3N8) (assay: Inhibition of histamine H4 receptor (Table A1; H4 membrane binding assay)). Conditions: not given.
T1 construct: expressed in transfected cells; host or cells: HEK293SFM cells (membrane preparation)
Description: Recombinant HEK293SFM cells expressing human H1, H2, H3, H4 or mouse H4 were harvested (Packard Filtermate Harvester) in ice-cold Tris-HCl, (50 mM, pH 7.5, Sigma) with protease inhibitors (Roche) and homogenized with a Polytron homogenizer. The homogenate was centrifuged for 5 minutes at 1000 g to remove nuclei and unbroken cells. The supernatant was centrifuged at 50000 g for 30 minutes, and the resulting pellet was re-suspended in ice-cold Tris-HCl (50 mM, pH 7.5). […] Nonspecific binding was determined by inclusion of 1000× unlabeled ligands. The bound radioactivity was separated by filtration through polyethyleneimine-treated GF/B filters (Perkin Elmer). The filters were washed eight times with ice-cold Tris-HCl (50 mM, pH 7.5), and radioactivity retained on the filters was measured by liquid scintillation counting. The binding data were evaluated with Prism. […]

T1 sequence (Q9H3N8 whole entry): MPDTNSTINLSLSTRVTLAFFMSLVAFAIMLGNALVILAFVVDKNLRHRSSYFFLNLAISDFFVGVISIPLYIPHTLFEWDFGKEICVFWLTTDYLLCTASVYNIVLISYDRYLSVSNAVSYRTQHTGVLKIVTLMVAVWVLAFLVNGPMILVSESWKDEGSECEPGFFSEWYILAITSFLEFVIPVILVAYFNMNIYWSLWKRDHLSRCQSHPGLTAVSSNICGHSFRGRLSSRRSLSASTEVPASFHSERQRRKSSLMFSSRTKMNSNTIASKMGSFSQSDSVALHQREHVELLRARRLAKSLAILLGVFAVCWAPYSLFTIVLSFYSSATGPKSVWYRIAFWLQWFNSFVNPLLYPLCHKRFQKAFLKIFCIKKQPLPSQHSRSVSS

SMILES | inhibition at 1 µM
CN1CCN(c2cc(N3CCc4ccc(NC(=O)N5CCCCC5)cc4C3)nc(N)n2)CC1 [Example 35, N-{2-[2-Amino-6-(4-methylpiperazin-1-yl)pyrimidin-4-yl]-1,2,3,4-tetrahydroisoquinolin-7-yl}piperidine-1-carboxamide] | 66%
CC1Cc2ccc(-c3ccn(CCC#N)n3)cc2CN1c1cc(N2CCN(C)CC2)nc(N)n1 (single isomer, unassigned) [Example 83B, 3-(3-{2-[2-Amino-6-(4-methylpiperazin-1-yl)pyrimidin-4-yl]-3-methyl-1,2,3,4-tetrahydroisoquinolin-7-yl}-1,1-pyrazol-1-yl)propanenitrile] | 61%
CNC(=O)c1cc(-c2ccc3c(c2)CN(c2cc(N4CCN(C)CC4)nc(N)n2)C(C)C3)cn1C (single isomer, unassigned) [Example 87B, 4-{2-[2-Amino-6-(4-methylpiperazin-1-yl)pyrimidin-4-yl]-3-methyl-1,2,3,4-tetrahydroisoquinolin-7-yl}-N,1-dimethyl-1H-pyrrole-2-carboxamide] | 69%
CCNC(=O)c1cccc(-c2ccc3c(c2)CN(c2cc(N4CCN(C)CC4)nc(N)n2)C(C)C3)n1 (single isomer, unassigned) [Example 158, 6-{2-[2-Amino-6-(4-methylpiperazin-1-yl)pyrimidin-4-yl]-3-methyl-1,2,3,4-tetrahydroisoquinolin-7-yl}-N-ethylpyridine-2-carboxamide] | 70%
CC1Cc2ccc(-c3cnn(CC4(C#N)CC4)c3)cc2CN1c1cc(N2CCN(C)CC2)nc(N)n1 (single isomer, unassigned) [Example 97B, 1-[(4-{2-[2-amino-6-(4-methylpiperazin-1-yl)pyrimidin-4-yl]-3-methyl-1,2,3,4-tetrahydroisoquinolin-7-yl}-1H-pyrazol-1-yl)methyl]cyclopropanecarbonitrile] | 72%

Same assay, conditions: histamine H4 receptor; "> a" = exceeds experiment limit

SMILES | IC50
CC1Cc2ccc(-c3ccn(CC#N)n3)cc2CN1c1cc(N2CCN(C)CC2)nc(N)n1 (single isomer, unassigned) [Example 82A, (3-{2-[2-Amino-6-(4-methylpiperazin-1-yl)pyrimidin-4-yl]-3-methyl-1,2,3,4-tetrahydroisoquinolin-7-yl}-1H-pyrazol-1-yl)acetonitrile] | 22 nM
Cc1cc(-c2ccc3c(c2)CN(c2cc(N4CCN(C)CC4)nc(N)n2)CC3)cnc1C(=O)N(C)C [Example 46, 5-{2-[2-Amino-6-(4-methylpiperazin-1-yl)pyrimidin-4-yl]-1,2,3,4-tetrahydroisoquinolin-7-yl}-N,N,3-trimethylpyridine-2-carboxamide] | 173 nM
CC1Cc2ccc(-c3cnn(C4CCOC4)c3)cc2CN1c1cc(N2CCN(C)CC2)nc(N)n1 (single isomer, unassigned) [Example 108, 4-(4-Methylpiperazin-1-yl)-6-[3-methyl-7-[1-(tetrahydrofuran-3-yl)-1H-pyrazol-4-yl]-3,4-dihydroisoquinolin-2(1H)-yl]pyrimidin-2-amine] | 46 nM
CC1Cc2ccc(-c3ccnc(C(=O)N4CCC(N(C)C)C4)c3)cc2CN1c1cc(N2CCN(C)CC2)nc(N)n1 (single isomer, unassigned) [Example 67B, 4-[7-(2-{[3-(dimethylamino)pyrrolidin-1-yl]carbonyl}pyridin-4-yl)-3-methyl-3,4-dihydroisoquinolin-2(1H)-yl]-6-(4-methylpiperazin-1-yl)pyrimidin-2-amine] | 50 nM
CC1Cc2ccc(-c3cnn(C(C)CC#N)c3)cc2CN1c1cc(N2CCN(C)CC2)nc(N)n1 (single isomer, unassigned) [Example 103, 3-(4-{2-[2-Amino-6-(4-methylpiperazin-1-yl)pyrimidin-4-yl]-3-methyl-1,2,3,4-tetrahydroisoquinolin-7-yl}-1H-pyrazol-1-yl)butanenitrile] | 24 nM
CC1Cc2ccc(-c3ccc4c(c3)NC(=O)CO4)cc2CN1c1cc(N2CCN(C)CC2)nc(N)n1 (centres unmarked) [Example 131, 6-{2-[2-amino-6-(4-methylpiperazin-1-yl)pyrimidin-4-yl]-3-methyl-1,2,3,4-tetrahydroisoquinolin-7-yl}-2H-1,4-benzoxazin-3(4H)-one] | 30 nM
CC1Cc2ccc(-c3ccnc(C(=O)N4CCCC4)c3)cc2CN1c1cc(N2CCN(C)CC2)nc(N)n1 (single isomer, unassigned) [Example 64B, 4-(4-methylpiperazin-1-yl)-6-[3-methyl-7-[2-(pyrrolidin-1-ylcarbonyl)pyridin-4-yl]-3,4-dihydroisoquinolin-2(1H)-yl]pyrimidin-2-amine] | 86 nM
CC1Cc2ccc(-c3cnn(C)c3)cc2CN1c1cc(N2CCNCC2)nc(N)n1 (centres unmarked) [Example 121, 4-[3-Methyl-7-(1-methyl-1H-pyrazol-4-yl)-3,4-dihydroisoquinolin-2 (1H)-yl]-6-piperazin-1-ylpyrimidin-2-amine] | 24 nM
CCOC(=O)N1CCN(c2ccc3c(c2)CN(c2cc(N4CCN(C)CC4)nc(N)n2)CC3)CC1 [Example 30, Ethyl 4-{2-[2-amino-6-(4-methylpiperazin-1-yl)pyrimidin-4-yl]-1,2,3,4-tetrahydroisoquinolin-7-yl}piperazine-1-carboxylate] | 282 nM
CNC(=O)c1cc(-c2ccc3c(c2)CN(c2cc(N4CCN(C)CC4)nc(N)n2)C(C)C3)cn1C (single isomer, unassigned) [Example 87A, 4-{2-[2-Amino-6-(4-methylpiperazin-1-yl)pyrimidin-4-yl]-3-methyl-1,2,3,4-tetrahydroisoquinolin-7-yl}-N,1-dimethyl-1H-pyrrole-2-carboxamide] | 26 nM
CC1Cc2ccc(-c3ccnc(C(=O)N4CCC4)c3)cc2CN1c1cc(N2CCN(C)CC2)nc(N)n1 (single isomer, unassigned) [Example 62B, 4-[7-[2-(azetidin-1-ylcarbonyl)pyridin-4-yl]-3-methyl-3,4-dihydroisoquinolin-2(1H)-yl]-6-(4-methylpiperazin-1-yl)pyrimidin-2-amine] | 49 nM
CC1Cc2ccc(-c3cncc(C(=O)N4CC(O)C4)c3)cc2CN1c1cc(N2CCN(C)CC2)nc(N)n1 (single isomer, unassigned) [Example 75, 1-[(5-{2-[2-Amino-6-(4-methylpiperazin-1-yl)pyrimidin-4-yl]-3-methyl-1,2,3,4-tetrahydroisoquinolin-7-yl}pyridin-3-yl)carbonyl]azetidin-3-ol] | 100 nM
CC1Cc2ccc(-c3cnn(C)c3)cc2CN1c1cc(N2CCCC(N)C2)nc(N)n1 (stereo in doubt) [Example 119, 4-[(3S)-3-Aminopiperidin-1-yl]-6-[3-methyl-7-(1-methyl-1H-pyrazol-4-yl)-3,4-dihydroisoquinolin-2(1H)-yl]pyrimidin-2-amine] | 91 nM
CC1Cc2ccc(-c3ccc4c(c3)N(C)C(=O)CO4)cc2CN1c1cc(N2CCN(C)CC2)nc(N)n1 (centres unmarked) [Example 132, 6-{2-[2-Amino-6-(4-methylpiperazin-1-yl)pyrimidin-4-yl]-3-methyl-1,2,3,4-tetrahydroisoquinolin-7-yl}-4-methyl-2H-1,4-benzoxazin-3(4H)-one] | 39 nM
CC1Cc2ccc(-c3ccnc(C(=O)N4CCC4)c3)cc2CN1c1cc(N2CCN(C)CC2)nc(N)n1 (single isomer, unassigned) [Example 62A, 4-[7-[2-(azetidin-1-ylcarbonyl)pyridin-4-yl]-3-methyl-3,4-dihydroisoquinolin-2 (1H)-yl]-6-(4-methylpiperazin-1-yl)pyrimidin-2-amine] | 46 nM
CC1Cc2ccc(-c3ccc(C(=O)N4CCC(N(C)C)C4)nc3)cc2CN1c1cc(N2CCN(C)CC2)nc(N)n1 (centres unmarked) [Example 57, 4-[7-(6-{[3-(Dimethylamino)pyrrolidin-1-yl]carbonyl}pyridin-3-yl)-3-methyl-3,4-dihydroisoquinolin-2(1H)-yl]-6-(4-methylpiperazin-1-yl)pyrimidin-2-amine] | 119 nM
CNC(=O)c1ccc(-c2ccc3c(c2)CN(c2cc(N4CCN(C)CC4)nc(N)n2)C(C)C3)cn1 (single isomer, unassigned) [Example 49B, 5-{2-[2-amino-6-(4-methylpiperazin-1-yl)pyrimidin-4-yl]-3-methyl-1,2,3,4-tetrahydroisoquinolin-7-yl}-N-methylpyridine-2-carboxamide] | 38 nM
CN1CCN(c2cc(N3CCc4ccc(-c5cnn(C6(CC#N)CCCC6)c5)cc4C3)nc(N)n2)CC1 [Example 11, [1-(4-{2-[2-Amino-6-(4-methylpiperazin-1-yl)pyrimidin-4-yl]-1,2,3,4-tetrahydroisoquinolin-7-yl}-1,1-pyrazol-1-yl)cyclopentyl]acetonitrile] | 110 nM
CC1Cc2ccc(-c3ccn(C)n3)cc2CN1c1cc(N2CCN(C)CC2)nc(N)n1 (single isomer, unassigned) [Example 85A, 4-[3-Methyl-7-(1-methyl-1H-pyrazol-3-yl)-3,4-dihydroisoquinolin-2(1H)-yl]-6-(4-methylpiperazin-1-yl)pyrimidin-2-amine] | 20 nM
CC1Cc2ccc(-c3cncc(C(=O)N(C)C)c3)cc2CN1c1cc(N2CCN(C)CC2)nc(N)n1 (single isomer, unassigned) [Example 74, 5-{2-[2-Amino-6-(4-methylpiperazin-1-yl)pyrimidin-4-yl]-3-methyl-1,2,3,4-tetrahydroisoquinolin-7-yl}-N,N-dimethylnicotinamide] | 148 nM
CC1Cc2ccc(-c3cnn(CCC#N)c3)cc2CN1c1cc(N2CCN(C)CC2)nc(N)n1 (single isomer, unassigned) [Example 96B, 3-(4-{2-[2-Amino-6-(4-methylpiperazin-1-yl)pyrimidin-4-yl]-3-methyl-1,2,3,4-tetrahydroisoquinolin-7-yl}-1H-pyrazol-1-yl)propanenitrile] | 352 nM

Source: patent US20130244999A1, “Substituted Heterocyclic Compounds” (Incyte Corporation, priority 2008, published 2013)
